{"source": "patent US20240050441A1", "about": "“COMBINATION THERAPIES FOR THE TREATMENT OF CANCER” (Erasca, Inc., priority 2020, published 2024)", "format_in_all_cases": "cell-based", "key": {"[1]": {"test_system": "SCC-9 cells", "test": "Cellular proliferation assay (CellTiter-Glo, day 5)", "details": "Homo sapiens, read-out: The compound of Formula I IC50, compound of Formula I alone", "procedure": "(§1) The cell lines used in the study were obtained from ATCC (CAL 27 #CRL-2095, SCC-15 #CRL-1623, SCC-25 #CRL-1628, SCC-4 #CRL-1624 and SCC-9 #CRL-1629). The cell line, CAL 27 was cultured in DMEM (Gib co #). SCC-4, SCC-15, SCC-25, SCC-9 cell lines was cultured in a 1:1 mixture of DMEM and Ham's F12 medium containing 1.2 g/L sodium bicarbonate, 2.5 mM L-glutamine, 15 mM HEPES and 0.5 mM sodium pyruvate supplemented with 400 ng/ml hydrocortisone, 90%; fetal bovine serum, 10% (Hyclone #SH-30071.03) and Penicillin/Streptomycin (Thermo Fisher #15070-063). The cells were maintained at 37° C./5% CO2. Cells were washed in ice cold PBS (Thermo Fisher Scientific #10010-023) and lysed in RIPA Lysis and Extraction Buffer (Thermo Fisher Scientific #89900) supplemented with Halt Phosphatase and Protease Inhibitor (Thermo Fisher Scientific #78445). The membrane was blocked for non-specific proteins by Bovine Serum Albumin BSA (Cell Signaling Tech #9998). Antibodies for immunoblotting were as follows: phospho-p44/42 ERK1/2 (Cell Signaling Tech #4370), ERK2 antibody (Santa Cruz #sc-1647), anti-mouse IgG HRP-linked antibody (Cell Signaling Tech #7076), and anti-rabbit IgG HRP-linked antibody (Cell Signaling Tech #7074).\n(§2) […] HPV-negative head and neck squamous cancer cell lines, CAL 27, SCC-4, SCC-9, SCC-15 and SCC-25 were split onto 96 well plates."}, "[2]": {"test_system": "SCC-25 cells", "test": "Cellular proliferation assay (CellTiter-Glo, day 5)", "details": "read-out: The compound of Formula I IC50, compound of Formula I alone", "procedure": "as §1, §2"}, "[3]": {"test_system": "CAL 27 cells", "test": "Cellular proliferation assay (CellTiter-Glo, day 5)", "details": "Homo sapiens, read-out: The compound of Formula I IC50, compound of Formula I alone", "procedure": "as §1, §2"}, "[4]": {"test_system": "SCC-15 cells", "test": "Cellular proliferation assay (CellTiter-Glo, day 5)", "details": "Homo sapiens, read-out: The compound of Formula I IC50, compound of Formula I alone", "procedure": "as §1, §2"}, "[5]": {"test_system": "ERK1/2 phosphorylation", "test": "Western blotting of phosphorylated ERK1/2 in CAL 27 cells", "details": "HPV-negative CAL 27 cells; 4 hours of treatment; immunoblot, bands normalized by total ERK", "procedure": "as §1, with “The membrane was blocked for non-specific proteins by Bovine Serum Albumin BSA (Cell Signaling Tech #9998). Antibodies for immunoblotting were as follows: phospho-p44/42 ERK1/2 (Cell Signaling Tech #4370), ERK2 antibody (Santa Cruz #sc-1647), anti-mouse IgG HRP-linked antibody (Cell Signaling Tech #7076), and anti-rabbit IgG HRP-linked antibody (Cell Signaling Tech #7074).” left out\nWestern blotting: Cells were lysed on ice for 10 minutes with Thermo Fisher RIPA lysis buffer with protease and phosphatase inhibitors. […] The supernatant was transferred to pre-chilled microcentrifuge tube and protein concentration of the lysate was measured using BCA method. […]\nAfter 4 hours of treatment, cells were lysed and immunoblotted for phosphorylated ERK1/2. […] The phosphorylated ERK1/2 bands were quantified by using Bio-Rad Image Lab software and normalized by total ERK."}}, "note": "Entries after “also recorded” stand apart in the source; their conditions may differ."}
{"smiles": "COCOC[C@H]1C[C@H]2COc3c(Sc4cnc(N5CCC6(CC5)CO[C@@H](C)[C@H]6N)c(CO)n4)ccnc3N2C1", "note": "[The compound of Formula I]", "values": [{"measurement": "IC50", "setting": "[1]", "value": 161, "unit": "nM"}, {"measurement": "IC50", "setting": "[2]", "value": 8050, "unit": "nM"}, {"measurement": "IC50", "setting": "[3]", "value": 112, "unit": "nM"}, {"measurement": "IC50", "setting": "[4]", "value": 1410, "unit": "nM"}, {"measurement": "inhibition of ERK1/2 phosphorylation relative to DMSO treated control cells", "setting": "[5]", "value": "approximately 50%; also recorded: about 50%"}]}
